Laboratory results as given in US11655236B2, “Activity-based probe compounds, compositions, and methods of use” (THE BOARD OF TRUSTEES OF THE LELAND STANFORD JUNIOR …, priority 2013, dated 2023).

System: cysteine cathepsins
Assay: Inhibition of probe labeling in living RAW cells by JPM-OEt pretreatment
Assay type: cell-based, mouse
Details: pre-treatment of living RAW cells with JPM-OEt (50 μM, 1 hr); labeling by qABP 8
Experimental: RAW cells were cultured in DMEM (GIBCO) supplemented with 10% fetal bovine serum (FBS; GIBCO), 100 units/mL penicillin and 100 μg/mL streptomycin (GIBCO). 4T1 cells (ATCC) were cultured in RPMI (GIBCO) supplemented with 10% fetal bovine serum (FBS; GIBCO), 100 units/mL penicillin and 100 μg/mL streptomycin (GIBCO). All cells were cultured in a 5% CO2 humidified incubator at 37° C. For intact cell labeling, cells were exposed to probe (500× in DMSO) in culture media and incubated for 2 hr at 37° C., unless stated otherwise. Where indicated the cells were preincubated for 1 hr with the inhibitor JPM-OEt (500× in DMSO) or exposed to mouse serum (1 μl probe stock solution in DMSO added to 9 μl serum) for 4 hr before addition to the cells. After labeling, the cells were washed with PBS and resuspended in hypotonic lysis buffer (50 mM PIPES pH 7.4, 10 mM KCl, 5 mM MgCl2, 2 mM EDTA, 4 mM DTT, and 1% NP-40) and put on ice for 15 min, centrifuged at 4° C. for 30 min and supernatants were collected, and protein concentration was determined using a BCA kit (pierce). […] Labeling intensities were quantified using Image J software. […] After 15 min on ice and centrifugation at 4° C. for 30 min the supernatants were collected, and protein concentration was determined using a BCA kit (pierce). […] 4×SDS-sample buffer was added and the protein was denatured for 3 min at 100° C. and analyzed as described above. […]

Substance: JPM-OEt
- blocking of probe labeling: more than 90%
